Laboratory results published in publication PMC11468049 (Fluids and Barriers of the CNS, 2024).
One block for each substance: values may come before it.

What was measured:
[1] = tested on: iPSC-derived pericyte-like cells; test: Aβ42-Hylite488 internalization by pericyte-like cells (confocal microscopy); type: cell-based, human; settings: confocal microscopy (Fig. 5D)
Excerpt: Data are reported as mean ± standard deviation. […] The last column contains the merged images. Scale bars: 10 μm. […] (n = 4 wells of biological replicates per condition) **: p < 0.01 in Student’s t-test. Data are reported as mean ± standard deviation. […] Confocal microscopy images were taken at 5 μm z-slice intervals. All z-slices with Hoechst 33342 nuclear staining were aggregated for maximum intensity projection analysis. Scale bars: 10 μm.

[2] = molecular target: T1, LRP1 (Homo sapiens, UniProt Q07954); test: in vitro Aβ transcytosis assay with LRP1 inhibition by RAP; type: cell-based; settings: APOE3 iPSC-derived BMEC-like cells on Transwell; with and without RAP; 3 h; apical Aβ40 by ELISA; n = 8 wells (Fig. 2D)
T1 construct: endogenous in cells; host or cells: APOE3 human iPSC-derived BMEC-like cells
T1 sequence (Q07954 20-4544): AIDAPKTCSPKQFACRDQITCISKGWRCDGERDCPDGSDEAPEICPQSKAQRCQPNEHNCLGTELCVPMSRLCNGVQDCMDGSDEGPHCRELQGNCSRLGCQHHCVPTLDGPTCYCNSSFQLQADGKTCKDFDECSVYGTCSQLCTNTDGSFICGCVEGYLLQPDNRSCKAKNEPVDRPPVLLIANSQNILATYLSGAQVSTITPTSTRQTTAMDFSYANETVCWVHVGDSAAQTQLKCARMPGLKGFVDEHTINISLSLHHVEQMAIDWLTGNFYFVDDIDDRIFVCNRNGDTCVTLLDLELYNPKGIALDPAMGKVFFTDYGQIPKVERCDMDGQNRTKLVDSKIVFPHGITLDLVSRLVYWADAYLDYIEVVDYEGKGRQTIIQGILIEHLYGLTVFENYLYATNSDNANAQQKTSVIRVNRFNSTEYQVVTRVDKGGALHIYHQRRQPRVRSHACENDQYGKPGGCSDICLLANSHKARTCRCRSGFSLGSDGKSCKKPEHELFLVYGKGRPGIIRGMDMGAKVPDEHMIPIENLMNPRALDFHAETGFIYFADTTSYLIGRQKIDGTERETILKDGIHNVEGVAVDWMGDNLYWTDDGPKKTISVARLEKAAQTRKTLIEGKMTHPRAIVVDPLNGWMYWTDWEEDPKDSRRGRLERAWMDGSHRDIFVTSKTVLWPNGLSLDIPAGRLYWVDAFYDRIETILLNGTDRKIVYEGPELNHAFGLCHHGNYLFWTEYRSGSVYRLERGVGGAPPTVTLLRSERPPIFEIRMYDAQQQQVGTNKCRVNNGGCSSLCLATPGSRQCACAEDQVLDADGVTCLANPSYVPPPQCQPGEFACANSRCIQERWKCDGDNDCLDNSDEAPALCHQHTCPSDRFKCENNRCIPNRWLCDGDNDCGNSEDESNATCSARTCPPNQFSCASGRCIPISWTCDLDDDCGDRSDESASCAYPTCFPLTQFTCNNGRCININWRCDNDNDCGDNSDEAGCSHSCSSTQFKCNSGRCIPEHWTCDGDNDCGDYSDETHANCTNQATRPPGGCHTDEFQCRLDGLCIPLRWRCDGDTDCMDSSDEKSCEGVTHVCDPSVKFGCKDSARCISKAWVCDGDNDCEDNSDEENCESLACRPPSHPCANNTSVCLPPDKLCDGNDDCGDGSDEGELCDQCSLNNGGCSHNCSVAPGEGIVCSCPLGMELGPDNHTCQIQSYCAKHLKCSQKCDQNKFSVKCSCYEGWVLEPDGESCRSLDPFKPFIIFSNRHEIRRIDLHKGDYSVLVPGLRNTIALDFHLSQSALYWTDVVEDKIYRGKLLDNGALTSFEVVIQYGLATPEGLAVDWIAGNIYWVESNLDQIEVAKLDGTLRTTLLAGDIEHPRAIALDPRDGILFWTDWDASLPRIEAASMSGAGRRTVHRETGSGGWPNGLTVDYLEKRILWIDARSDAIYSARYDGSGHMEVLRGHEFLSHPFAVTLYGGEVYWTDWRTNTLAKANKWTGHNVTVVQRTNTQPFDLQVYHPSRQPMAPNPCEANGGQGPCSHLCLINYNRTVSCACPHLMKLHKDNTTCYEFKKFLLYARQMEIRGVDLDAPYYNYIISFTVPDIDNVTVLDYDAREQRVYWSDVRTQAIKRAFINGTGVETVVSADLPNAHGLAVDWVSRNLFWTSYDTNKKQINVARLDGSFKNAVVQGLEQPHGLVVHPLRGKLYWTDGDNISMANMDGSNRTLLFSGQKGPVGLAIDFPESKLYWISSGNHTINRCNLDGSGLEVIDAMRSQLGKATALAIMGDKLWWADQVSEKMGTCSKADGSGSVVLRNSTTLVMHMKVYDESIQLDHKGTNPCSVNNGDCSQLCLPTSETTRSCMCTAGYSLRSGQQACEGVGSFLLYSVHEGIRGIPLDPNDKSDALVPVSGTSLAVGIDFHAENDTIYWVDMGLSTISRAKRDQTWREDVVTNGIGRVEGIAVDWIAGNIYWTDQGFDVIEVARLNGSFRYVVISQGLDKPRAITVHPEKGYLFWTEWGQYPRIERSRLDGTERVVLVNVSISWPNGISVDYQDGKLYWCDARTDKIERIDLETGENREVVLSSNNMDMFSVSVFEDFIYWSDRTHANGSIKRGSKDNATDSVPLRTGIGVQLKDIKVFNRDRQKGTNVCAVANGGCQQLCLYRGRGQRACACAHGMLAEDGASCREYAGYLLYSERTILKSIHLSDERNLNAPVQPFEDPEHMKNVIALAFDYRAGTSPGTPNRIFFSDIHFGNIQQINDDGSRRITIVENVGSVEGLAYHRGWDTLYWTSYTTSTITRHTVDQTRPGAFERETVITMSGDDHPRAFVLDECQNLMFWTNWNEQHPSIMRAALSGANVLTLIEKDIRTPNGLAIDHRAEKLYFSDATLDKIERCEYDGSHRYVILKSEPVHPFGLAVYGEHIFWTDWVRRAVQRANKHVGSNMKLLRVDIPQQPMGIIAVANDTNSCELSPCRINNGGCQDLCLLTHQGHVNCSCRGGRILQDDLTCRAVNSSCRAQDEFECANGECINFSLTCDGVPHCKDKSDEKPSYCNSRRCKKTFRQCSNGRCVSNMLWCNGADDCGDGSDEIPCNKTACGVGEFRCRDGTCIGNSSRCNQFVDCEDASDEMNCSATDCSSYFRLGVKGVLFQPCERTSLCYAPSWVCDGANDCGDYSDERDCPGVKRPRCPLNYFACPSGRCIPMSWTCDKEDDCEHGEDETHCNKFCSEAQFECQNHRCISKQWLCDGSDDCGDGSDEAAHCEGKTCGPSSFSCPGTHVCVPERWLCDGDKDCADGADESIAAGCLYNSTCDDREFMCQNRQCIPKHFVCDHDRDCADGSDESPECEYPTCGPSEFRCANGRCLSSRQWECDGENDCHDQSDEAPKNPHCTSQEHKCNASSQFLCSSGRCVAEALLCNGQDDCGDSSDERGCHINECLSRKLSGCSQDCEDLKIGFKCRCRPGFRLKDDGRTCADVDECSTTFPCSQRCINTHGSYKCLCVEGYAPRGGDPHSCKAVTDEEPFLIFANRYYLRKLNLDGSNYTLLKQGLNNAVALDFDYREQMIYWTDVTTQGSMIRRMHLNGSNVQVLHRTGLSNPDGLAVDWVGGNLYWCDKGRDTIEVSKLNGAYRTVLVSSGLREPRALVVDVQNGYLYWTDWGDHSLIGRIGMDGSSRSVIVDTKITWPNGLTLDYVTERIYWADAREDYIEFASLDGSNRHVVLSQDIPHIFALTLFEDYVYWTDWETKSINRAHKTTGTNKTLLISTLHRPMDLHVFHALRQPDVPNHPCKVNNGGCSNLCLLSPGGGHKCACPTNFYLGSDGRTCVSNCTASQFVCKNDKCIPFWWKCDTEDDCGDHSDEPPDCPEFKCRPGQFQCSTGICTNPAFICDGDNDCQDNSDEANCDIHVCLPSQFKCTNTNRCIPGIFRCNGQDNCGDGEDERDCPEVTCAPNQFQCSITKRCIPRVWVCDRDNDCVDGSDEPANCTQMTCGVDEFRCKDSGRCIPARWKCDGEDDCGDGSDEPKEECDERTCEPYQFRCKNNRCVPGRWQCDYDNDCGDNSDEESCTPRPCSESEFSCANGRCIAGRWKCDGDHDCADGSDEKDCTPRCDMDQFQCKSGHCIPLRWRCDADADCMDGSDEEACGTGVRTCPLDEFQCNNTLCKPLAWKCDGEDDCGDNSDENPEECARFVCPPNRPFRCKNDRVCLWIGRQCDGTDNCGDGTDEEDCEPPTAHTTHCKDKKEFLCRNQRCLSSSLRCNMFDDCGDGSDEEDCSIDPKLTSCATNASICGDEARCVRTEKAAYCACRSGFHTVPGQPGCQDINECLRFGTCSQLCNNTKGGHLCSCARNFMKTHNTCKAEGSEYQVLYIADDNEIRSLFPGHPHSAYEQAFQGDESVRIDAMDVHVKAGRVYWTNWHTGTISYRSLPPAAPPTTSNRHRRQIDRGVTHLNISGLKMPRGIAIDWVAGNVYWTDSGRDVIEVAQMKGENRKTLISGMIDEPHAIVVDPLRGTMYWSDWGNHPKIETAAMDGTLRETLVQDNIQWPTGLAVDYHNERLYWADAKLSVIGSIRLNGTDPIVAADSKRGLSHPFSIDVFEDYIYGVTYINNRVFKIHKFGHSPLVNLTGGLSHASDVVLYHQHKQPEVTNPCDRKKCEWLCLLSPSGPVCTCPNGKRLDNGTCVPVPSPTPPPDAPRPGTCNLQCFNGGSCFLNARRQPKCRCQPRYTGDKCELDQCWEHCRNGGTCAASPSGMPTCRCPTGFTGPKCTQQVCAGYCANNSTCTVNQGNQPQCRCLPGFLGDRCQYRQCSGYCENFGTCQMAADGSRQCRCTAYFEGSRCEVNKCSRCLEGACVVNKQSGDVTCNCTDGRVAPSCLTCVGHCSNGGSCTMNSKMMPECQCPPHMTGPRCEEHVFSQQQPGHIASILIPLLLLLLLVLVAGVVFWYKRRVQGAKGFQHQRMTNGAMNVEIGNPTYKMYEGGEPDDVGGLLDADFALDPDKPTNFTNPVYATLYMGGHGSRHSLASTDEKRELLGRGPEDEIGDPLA
Experimental: (§1) Transwells (Corning, 3460) pre-coated with 200 uL 0.5 mg/mL collagen IV (Sigma, C5533) overnight at 37 °C. iPSC-derived BMEC-like cells were seeded at 1 million/cm^2 on Transwells (Corning, 3460) in hECSR media. […] This buffer helps to maintain Aβ in monomeric and denatured state. Stocks were then diluted to 500 nM in hECSR medium immediately before experiments. For experiments conditions when recombinant APOE is added, recombinant APOE2 (Peprotech, 350 − 12), APOE3 (Peprotech, 350-02) or APOE4 (Peprotech, 350-04) were added at concentration of 500 nM. In transcytosis assay, 1.5 mL of hECSR medium with Aβ and/or recombinant APOE was added to the basolateral chamber. 0.5 mL of hECSR media that is Aβ-free and APOE-free was added to the apical chamber. The Transwells were then incubated at 37 °C on a 300 rpm orbital shaker for 3 h. Media samples from the apical chamber were taken and analyzed.
(Fig. 2A). […] (Fig. 2E).

[3] = molecular target: T1, LRP1; test: Aβ42-Hylite488 internalization by pericyte-like cells with LRP1 inhibition by RAP; type: cell-based; settings: APOE3 pericyte-like cells; with or without RAP; confocal MFI; n = 4 (Fig. 5D, E)
Excerpt: Patients with AD commonly have amyloid deposits associated with their brain vasculature, contributing to a pathological condition known as cerebral amyloid angiopathy (CAA). Recently, a role of pericytes in CAA has been reported. We quantified deposition of Aβ42, the Aβ isoform more prone to aggregation, for pericyte-like cells expressing different APOE isoforms. […] The pericyte-like cells were then singularized, washed and fixed, but not permeabilized, for cell surface immunolabeling with an anti-Aβ antibody. […] In the same way, we then examined the impact of APOE genotype on pericyte-like cell internalization of Aβ42.
Pericyte-like cells were then singularized, washed and labeled with anti-Aβ-FITC antibody for flow cytometry quantification of cell surface-associated Aβ42. […] FSC: forward scatter. Histogram is normalized to mode. […] Data are reported as mean ± standard deviation. (D) Representative confocal microscopy images showing accumulation of intracellular Aβ42-Hylite488 with or without LRP1 inhibition by RAP in APOE3 pericyte-like cells. […] (E) Quantification of mean fluorescence intensity (MFI) of Aβ42-Hylite488 accumulated inside APOE3 pericyte-like cells by confocal microscopy. […] (G) Quantification of mean fluorescence intensity (MFI) in maximum intensity projection confocal microscopy images of Aβ42-Hylite488 accumulated inside iPSC-derived pericytes by confocal microscopy. […]

[4] = tested on: iPSC-derived BMEC-like cells; test: in vitro Aβ transcytosis assay (basolateral-to-apical, Transwell); type: cell-based, human; settings: 3 h, 37 °C; for effect of recombinant APOE isoform on Aβ42 trafficking: 500 nM rhAPOE plus 500 nM Aβ42 basolateral
Experimental: as §1

[5] = APOE KO BMEC-like cells on Transwell, apical ELISA, vs no APOE control, n = 12 (Fig. 3D)

Substance: Aβ42-HyLite488: fluorescently labeled Aβ42
internalization by APOE3 pericyte-like cells [1]: internalized fluorescently labeled Aβ42-HyLite488

effect of LRP1 inhibition on Aβ42-Hylite488 internalization [3]: internalization was diminished
Substance: RAP: LRP1 inhibitor; competes with APOE for LRP1 binding
effect of LRP1 inhibition on basolateral-to-apical Aβ40 transcytosis [2]: reduced but did not completely inhibit Aβ transcytosis

Substance: rhAPOE2: recombinant human APOE2 (Peprotech, 350 − 12)
effect of recombinant APOE isoform on Aβ42 trafficking [4, 5]: significantly increased the trafficking of Aβ42

Substance: rhAPOE3: recombinant human APOE3 (Peprotech, 350-02)
effect on basolateral-to-apical Aβ40 transcytosis ([4]; APOE3 iPSC-derived BMEC-like cells on Transwell, Aβ40 dosed basolateral with or without rhAPOE3, apical Aβ40 by ELISA, n = 8 wells (Fig. 2D)): facilitated Aβ40 transcytosis | effect of recombinant APOE isoform on Aβ40 trafficking ([4]; APOE KO BMEC-like cells on Transwell, 500 nM rhAPOE plus 500 nM Aβ40 basolateral, apical ELISA, vs no APOE control, n = 12 (Fig. 3D)): significantly increased the trafficking of Aβ40

Substance: rhAPOE4: recombinant human APOE4 (Peprotech, 350-04)
effect of recombinant APOE isoform on Aβ42 trafficking [4, 5]: does not provide any increase in Aβ40 or Aβ42 clearance
